Assay results as given in patent US4578395A, “Certain aralkylaminoalkyl esters of 1,4 dihydropyridines as antihypertensive” (Teijin Limited, priority 1983, dated 1986).
Where a name gives a salt, the structure may show the parent alone.

Experiments:
conscious rats = test: Antihypertensive activity by oral administration in conscious rats; assay type: in vivo, Male Wistar rats; conditions: 10 mg/kg oral
Protocol: When one hour or more passed after the rats were aroused, they were administered the test compound orally.
The blood pressure in the femoral artery was recorder and changes in the mean blood pressure were obtained from the following equation. [formula]

[1] = test system: SHR (Spontaneously Hypertensive Rats); test: Antihypertensive activity in SHR; assay type: in vivo, Male SHR (Spontaneously Hypertensive Rats); conditions: no anesthesia
Protocol: Male SHR (14 to 16 weeks old) fasted for more than 16 hours were used. […] When one hour or more passed after the rats woke up out of the ether, they were administered the test compound orally. The blood pressure was measured with the pressure transducer via the catheter inserted into the femoral artery.
The test compound was dissolved in a small quantity of ethanol and diluted with water to be adjusted for administration.
Changes in the mean blood pressure were obtained from the equation mentioned below. The Basic and Clinical Study, vol. 14, p. 4495 (1980) is a useful literature to be referred to for making this kind of experiment. [formula]

mean blood pressure = test: Action on mean blood pressure in anesthetized dog; assay type: in vivo, male beagle dog; conditions: 10 μg/kg i.v.
Protocol: (§1) A male beagle dog weighing about 10 kg was anesthetized with sodium pentobarbital (35 mg/kg i.v.). The test compound was dissolved in a small quantity of ethanol, diluted with an isotonic sodium chloride solution, and was injected into the right femoral vein.
The mean blood pressure (MBP) was measured with the pressure transwer via the cannula inserted into the right femoral artery of the male beagle dog. The changes in the blood pressure after the administration of the test compound are shown in percentages in Table 5.

myocardium = test: Action on myocardium (Max dLVP/dt) in anesthetized dog; assay type: in vivo, male beagle dog; conditions: 10 μg/kg i.v.
Protocol: as §1
The left ventricular pressure (LVP) was measured with the pressure transducer via the cannula which was inserted from the left common carotid artery into the left ventricle and the recorded pressure was differentiated to calculate the max (dLVP/db), thus measuring the pharmacological action of the test compound on the myocardium. […] The Basic and Clinical Study, vol. 14, 4477 (1980) is a useful literature to be consulted with for making this kind of experiment. It is apparent from Table 6 that the compound of this invention has less exciting action on the myocardium than nicardipine.

[2] = test system: cerebral blood vessels (common carotid artery); test: Action on cerebral blood vessels (carotic blood flow) in anesthetized dog; assay type: in vivo, male beagle dog; conditions: 3 μg/kg i.v.
Protocol: as §1
(§2) The carotic blood flow (CBF) and the femoral blood flow (FBF) were measured with the electromagnetic blood flowmeter (MFV-1200 made by Japan Photoelectric Co., Ltd.) via probe for measuring the blood flow volume set in the right common carotid artery and the left femoral artery of the male beagle dog respectively.

Ca^++ contraction = test: Activity of calcium ion blocking action (thoracic aorta strips); design: species or system male wister rat
Protocol: Spillay cut strips of thoracic arota were obtained from male wister rat and mounted in K-depalarized solution. 30-40 min. after treatment of compound (140) hydrochloride various concentration of Ca^++ were applied and concentration-response curve of calcium ion (Ca^++) was obtained.

platelet aggregation = test: In vitro inhibitory activity of platelet aggregation; assay type: cell-based, male Hartley guinea pigs; conditions: AA 75 μM; for inhibition at 100 µM: Cavia porcellus, Platelet, Conc. 100 μM
Protocol: The in vitro platelet aggregation inhibiting activities of the compounds of the invention were examined by using guinea pigs. Blood was withdrawn by cardiac puncture from male Hartley guinea pigs weighing […]. A mixture of a 3.8% trisodium citrate solution and the blood in a ratio of 1:9 was centrifuged at a speed of 800 rpm for 10 minutes. The upper layer was separated as platelet-rich plasma (PRP). The lower layer was further centrifuged at a separated as platelet-poor plasma (PPP). The number of platelets was adjusted to 5×10^5 /μl to 6×10^5 /μl by filuting the PRP with PPP. 25 microliters of the test compounds prepared as shown below was added in an amount of 25 microliters of PRP after the adjustment, and the mixture was pre-incubated at 37° C. for 2 minutes, and then 75 μM (final) of AA was added. By using an aggregometer (37° C., 1,100 rpm), changes in transmission were recorded.
The test compound was dissolved in ethanol to a concentration of 10 mg/ml. When its activity was measured, it was used after being diluted with phosphate buffer (pH 7.4). Furthermore, after dilution with the buffer, the test compound was left to stand at 0° C. for 4 hours, and the activity of the test compound was similarly measured.
The rate of inhibition of platelet aggregation was determined from the following equation. [formula]

anesthetized rats = test: Hypotensive activity by intravenous administration in anesthetized rats (Example 23); assay type: in vivo, Male Wistar rats
Protocol: Male Wistar rats weighing about 250 g were used. They were anesthetized with urethane (500 mg/kg) and α-chloralose (100 mg/kg) intraperitoneal injection.
The test compound was dissolved in a small quantity of ethanol and the solution, which was then diluted with physiological saline to have a final concentration of ethanol kept at 5% or lower, was intravenously injected through a catheter inserted into the femoral vein.
The blood pressure was recorded with the pressure transducer via the catheter inserted into the common carotid artery of the rats.
Hypotensive activity of the test compound was indicated by the dose (ED20 μ/kg) required for decreasing the mean blood pressure by 20% as compared with the mean blood pressure before the administration.
To determine the duration of the hypotensive action of the test compound, half-life of hypotensive action T^1 /2) was measured.

[3] = test system: peripheral blood vessels (femoral artery); test: Action on peripheral blood vessels (femoral blood flow) in anesthetized dog; assay type: in vivo, male beagle dog; conditions: 3 μg/kg i.v.
Protocol: as §1, §2

[4] = Light stability in methanol solution; assay type: physicochemical; conditions: light, read-out: Remaining percentage
Protocol: 1 mg of compound (156) hydrochloride was dissolved in 100 ml of methanol. The solution was placed in a transparent glass test tube, and after the test tube was tightly stoppered, it was allowed to stand by the window of the laboratory. Part of the solution was taken at regular intervals and subjected to high performance liquid chromatograph to determined the remaining quantity of compound (156) hydrochloride contained in the solution. The same experiment was conducted with nicardipine hydrochloride as the control.

## COC(=O)C1=C(C)NC(C)=C(C(=O)OCC(C)(C)CN(C)Cc2ccccc2)C1c1cc([N+](=O)[O-])ccc1F (centres unmarked) [(140) hydrochloride, 3-(N-Benzyl-N-methylamino)-2,2-dimethylpropyl methyl 2,6-dimethyl-4-(2-fluoro-5-nitrophenyl)-1,4-dihydropyridine-3,5-dicarboxylate]
Conscious rats; after 30 min
  Changes in mean blood pressure: -36.7 mmHg
Conscious rats; after 60 min
  Changes in mean blood pressure: -35.4 mmHg
Conscious rats; after 90 min
  Changes in mean blood pressure: -36.3 mmHg
Conscious rats; after 2 hr
  Changes in mean blood pressure: -36.2 mmHg
Conscious rats; after 3 hr
  Changes in mean blood pressure: -33.8 mmHg
Conscious rats; after 5 hr
  Changes in mean blood pressure: -32.6 mmHg
Conscious rats; after 7 hr
  Changes in mean blood pressure: -31.7 mmHg
[1]; 3 mg/kg oral, 30 min.
  Changes in MBP: -68 ± 2 mmHg
[1]; 3 mg/kg oral, 60 min.
  Changes in MBP: -69 ± 4 mmHg
[1]; 3 mg/kg oral, 90 min.
  Changes in MBP: -65 ± 2 mmHg
[1]; 3 mg/kg oral, 2 hr.
  Changes in MBP: -65 ± 2 mmHg
[1]; 3 mg/kg oral, 3 hr.
  Changes in MBP: -65 ± 2 mmHg
[1]; 3 mg/kg oral, 5 hr.
  Changes in MBP: -55 mmHg
[1]; 3 mg/kg oral, 7 hr.
  Changes in MBP: -39 ± 5 mmHg
Mean blood pressure; 0.5 min.
  Changes in MBP: -6 ± 1%
Mean blood pressure; 1 min.
  Changes in MBP: -10 ± 1%
Mean blood pressure; 2 min.
  Changes in MBP: -15 ± 1%
Mean blood pressure; 5 min.
  Changes in MBP: -20 ± 2%
Mean blood pressure; 10 min.
  Changes in MBP: -23 ± 2%
Mean blood pressure; 15 min.
  Changes in MBP: -28 ± 3%
myocardium; 0.5 min.
  Changes in Max dLVP/dt: 0 ± 2%
myocardium; 1 min.
  Changes in Max dLVP/dt: +2 ± 2%
myocardium; 2 min.
  Changes in Max dLVP/dt: +2 ± 3%
myocardium; 5 min.
  Changes in Max dLVP/dt: -6 ± 3%
myocardium; 10 min.
  Changes in Max dLVP/dt: +6 ± 4%
myocardium; 15 min.
  Changes in Max dLVP/dt: +4 ± 4%
[2]; 0.5 min.
  Changes in CBF: +7%
[2]; 1 min.
  Changes in CBF: +14%
[2]; 2 min.
  Changes in CBF: +17%
[2]; 5 min.
  Changes in CBF: +22%
[2]; 10 min.
  Changes in CBF: +22%
Ca^++ contraction; 30-40 min after treatment, K-depolarized solution, read-out: 50% inhibited concentration to Ca^++ contraction
  IC50: 0.1 nM
Platelet aggregation
  inhibition at 100 µM: -1.1 ± 1.4%

## COC(=O)C1=C(C)NC(C)=C(C(=O)OCCN(C)Cc2ccccc2)C1c1cccc([N+](=O)[O-])c1 (stereo not drawn) [Nicardipine hydrochloride, 4-(3-nitrophenyl)-2,6-dimethyl-1,4-dihydropyridine-3,5-dicarboxylic acid-3-methyl ester-5-β-(N-benzyl-N-methylamino) ethyl hydrochloride, reference compound]
Anesthetized rats; Rattus norvegicus, iv, anesthetized Wistar rats about 250 g, read-out: ED20 (dose decreasing mean blood pressure by 20%)
  ED20: 0.021 mg/kg
Anesthetized rats; i.v., dose 30
  Duration T1/2 (half-life of hypotensive action): 4.2 min
Conscious rats; after 30 min
  Changes in mean blood pressure: -26.7 mmHg
Conscious rats; after 60 min
  Changes in mean blood pressure: -19.2 mmHg
Conscious rats; after 90 min
  Changes in mean blood pressure: -18.3 mmHg
Conscious rats; after 2 hr
  Changes in mean blood pressure: -16.3 mmHg
Conscious rats; after 3 hr
  Changes in mean blood pressure: -7.1 mmHg
Conscious rats; after 5 hr
  Changes in mean blood pressure: +1.3 mmHg
Conscious rats; after 7 hr
  Changes in mean blood pressure: +2.5 mmHg
[1]; 10 mg/kg oral, 30 min.
  Changes in MBP: -28 ± 13 mmHg
[1]; 10 mg/kg oral, 60 min.
  Changes in MBP: -29 ± 11 mmHg
[1]; 10 mg/kg oral, 90 min.
  Changes in MBP: -17 ± 14 mmHg
[1]; 10 mg/kg oral, 2 hr.
  Changes in MBP: -18 ± 9 mmHg
[1]; 10 mg/kg oral, 3 hr.
  Changes in MBP: -12 ± 8 mmHg
[1]; 10 mg/kg oral, 5 hr.
  Changes in MBP: -10 mmHg
[1]; 10 mg/kg oral, 7 hr.
  Changes in MBP: -11 ± 6 mmHg
Mean blood pressure
  time to peak of antihypertensive action after the administration: one
Mean blood pressure; 0.5 min.
  Changes in MBP: -17 ± 2%
Mean blood pressure; 1 min.
  Changes in MBP: -18 ± 3%
Mean blood pressure; 2 min.
  Changes in MBP: -16 ± 3%
Mean blood pressure; 5 min.
  Changes in MBP: -11 ± 4%
Mean blood pressure; 10 min.
  Changes in MBP: -7 ± 4%
Mean blood pressure; 15 min.
  Changes in MBP: -8 ± 5%
myocardium; 0.5 min.
  Changes in Max dLVP/dt: +5 ± 3%
myocardium; 1 min.
  Changes in Max dLVP/dt: +10 ± 7%
myocardium; 2 min.
  Changes in Max dLVP/dt: +38 ± 23%
myocardium; 5 min.
  Changes in Max dLVP/dt: +42 ± 24%
myocardium; 10 min.
  Changes in Max dLVP/dt: +31 ± 18%
myocardium; 15 min.
  Changes in Max dLVP/dt: +6 ± 11%
[2]
  time to peak of CBF after the administration: one
[2]; 0.5 min.
  Changes in CBF: +7%
[2]; 1 min.
  Changes in CBF: +14%
[2]; 2 min.
  Changes in CBF: +13%
[2]; 5 min.
  Changes in CBF: +5%
[2]; 10 min.
  Changes in CBF: +3%
[3]
  time to peak of FBF after the administration: 2 min
[3]; 0.5 min.
  Changes in FBF: +7 ± 7%
[3]; 1 min.
  Changes in FBF: +20 ± 9%
[3]; 2 min.
  Changes in FBF: +24 ± 0%
[3]; 5 min.
  Changes in FBF: +17 ± 10%
[3]; 10 min.
  Changes in FBF: +6 ± 0%
Ca^++ contraction; as much as that of compound (140) hydrochloride
  50% inhibited concentration to Ca^++ contraction relative to compound (140) hydrochloride: twice
Platelet aggregation; 100 μM
  inhibitory activity of platelet aggregation: has inhibitory activity of platelet aggregation
Platelet aggregation
  inhibition at 100 µM: 35.2 ± 9.4%
[4]; 2 hr.
  remaining at 2 h: 98%
[4]; 4 hr.
  remaining at 4 h: 87%
[4]; 6 hr.
  remaining at 6 h: 78%
